Paper PMC12865225 (Clinical and Translational Science, 2026)
Where “and” joins values, the source holds several entries; their conditions need not be identical. Identical values can stand only once. Marks after values point to notes of the source that are not given here.

Experiments:
MRP2 = test system: T1, MRP2; test: Efflux transport assay in MRP2 HEK293 membrane vesicles; assay type: biochemical, human; conditions: 5 and 50 µM, 10 min
T1 construct: made in house; host or cells: membrane vesicles from HEK293 cells expressing the transporter

OATP1B3 = molecular target: T2, OATP1B3 (Homo sapiens, UniProt Q9NPD5); test: Uptake transport assay in OATP1B3-expressing HEK293 cells; assay type: cell-based; conditions: for transport by OATP1B3: 2 and 50 μM, 10 min; for Km at 2 min: human, HEK293 cells transiently expressing OATP1B3, pH 7.4, uptake; for Km / Vmax (pmol/106 cells/min) OATP1B3: uptake; for Km at 2 min / Km / Vmax (pmol/106 cells/min) OATP1B3: 2 min
T2 construct: expressed in transfected cells; host or cells: HEK293 (recombinant baculovirus-mediated transduction)
T2 sequence (Q9NPD5 1-702): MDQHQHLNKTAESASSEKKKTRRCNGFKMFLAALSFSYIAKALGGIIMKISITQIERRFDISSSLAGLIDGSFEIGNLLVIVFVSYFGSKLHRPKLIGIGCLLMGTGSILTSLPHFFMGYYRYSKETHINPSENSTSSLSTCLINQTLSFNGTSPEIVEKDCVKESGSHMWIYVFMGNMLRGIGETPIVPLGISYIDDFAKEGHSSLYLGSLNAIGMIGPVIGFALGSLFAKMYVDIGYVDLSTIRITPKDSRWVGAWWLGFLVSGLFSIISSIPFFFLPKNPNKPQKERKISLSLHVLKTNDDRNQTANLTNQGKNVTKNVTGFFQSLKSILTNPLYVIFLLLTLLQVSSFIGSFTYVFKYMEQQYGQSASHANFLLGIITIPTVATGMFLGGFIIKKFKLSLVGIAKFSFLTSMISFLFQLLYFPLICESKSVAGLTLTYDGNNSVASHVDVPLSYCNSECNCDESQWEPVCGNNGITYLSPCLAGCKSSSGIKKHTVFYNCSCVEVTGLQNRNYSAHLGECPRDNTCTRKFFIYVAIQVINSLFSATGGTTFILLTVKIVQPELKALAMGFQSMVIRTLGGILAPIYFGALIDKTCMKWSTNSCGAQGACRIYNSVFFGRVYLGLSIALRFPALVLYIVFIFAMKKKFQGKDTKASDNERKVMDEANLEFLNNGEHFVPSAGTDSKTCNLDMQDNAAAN
Procedure: (§1) The human transporters OATP1B1, OATP1B3, OATP2B1, and OAT1‐OAT4 and a negative control protein (enhanced yellow fluorescent protein, eYFP) were transiently expressed in human embryonic kidney 293 (HEK293) cells by recombinant baculovirus‐mediated transduction. Baculoviruses carrying human genes for the transporters were prepared as reported previously. HEK293 cells were cultured in DMEM containing 10% fetal bovine serum at 37°C and 5% CO2 and passaged two to three times per week. For the transport studies, 0.05 × 10^6 cells for 48‐well plates (OATPs) or 0.06 × 10^6 cells for 24‐well plates (OATs) were seeded onto cell‐culture treated well plates coated with poly‐D‐lysine. After 1 day, cells were transduced to produce recombinant proteins by changing media to DMEM containing 30 μL (48‐well plates) or 60 μL (24‐well plates) of recombinant baculovirus and 3 mM (OATs) or 5 mM (OATPs) sodium butyrate in a total media volume of 500 μL. The cells were cultured for a further 2 days before the transport assays.
For the transport studies, media were removed and cells were washed once with warm transport uptake buffer (TP‐buffer—pH 7.4 HBSS with 25 mM HEPES and 4 mM sodium bicarbonate). Each experiment included triplicate (OATP) or duplicate (OAT) samples for every test condition. The uptake was started by removing liquid from wells and applying warm TP‐buffer (200 μL for 24‐well plates or 125 μL for 48‐well plates) containing a test compound to cells. Transport assays were terminated after a pre‐specified incubation time (reported in figure legends) by removing substrate solution and washing cells three times with cold TP‐buffer (300 μL for 48‐well plates and 400 μL for 24‐well plates). For the liquid chromatography mass spectrometry (LC–MS) analysis, compounds were extracted from cells with 125 μL (48‐well plates) or 250 μL (24‐well plates) of an ultrapure‐water solution containing 75% methanol and 0.1% formic acid, shaking at 250 RPM for 30 min. […] Samples were transferred to well plates, centrifuged at 3000 g for 30 min, and transferred to a new well plate for the analysis.
Equation (2) (the Michaelis–Menten equation) was fit to the transport kinetic assay data. […] (2) Uptake=Vmax×S/Km+S

OAT4 = molecular target: T3, OAT4 (Homo sapiens, UniProt Q9NSA0); test: OAT4 inhibition, methotrexate uptake into HEK293 cells; assay type: cell-based; conditions: for Calculated R-value OAT4: R = I max,u/IC50, cut-off ≥ 0.02 (MATE threshold)
T3 construct: expressed in transfected cells; host or cells: HEK293 (recombinant baculovirus-mediated transduction)
T3 sequence (Q9NSA0 1-550): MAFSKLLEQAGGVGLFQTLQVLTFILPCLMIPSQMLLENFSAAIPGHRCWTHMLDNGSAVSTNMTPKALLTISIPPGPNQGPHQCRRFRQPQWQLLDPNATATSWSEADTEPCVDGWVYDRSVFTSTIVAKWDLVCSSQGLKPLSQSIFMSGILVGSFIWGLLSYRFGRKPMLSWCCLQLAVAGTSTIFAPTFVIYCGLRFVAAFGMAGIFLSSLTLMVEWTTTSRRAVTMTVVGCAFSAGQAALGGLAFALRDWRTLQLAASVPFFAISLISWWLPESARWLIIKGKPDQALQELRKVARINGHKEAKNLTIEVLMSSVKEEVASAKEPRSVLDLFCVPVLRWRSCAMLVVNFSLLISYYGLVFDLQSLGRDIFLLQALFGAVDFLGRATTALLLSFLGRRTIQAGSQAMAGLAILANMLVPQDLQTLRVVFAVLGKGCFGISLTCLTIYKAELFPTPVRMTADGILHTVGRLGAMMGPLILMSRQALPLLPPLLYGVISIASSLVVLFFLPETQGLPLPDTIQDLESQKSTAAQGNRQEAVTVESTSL
Procedure: as §1
For the transport studies, media were removed and cells were washed once with warm transport uptake buffer (TP‐buffer—pH 7.4 HBSS with 25 mM HEPES and 4 mM sodium bicarbonate). Each experiment included triplicate (OATP) or duplicate (OAT) samples for every test condition. […]
In the OATP inhibition assays, inhibitors in warm TP‐buffer were directly applied to cells after media removal, followed by a 30‐min preincubation step in the presence of inhibitors. […] OAT1 and OAT3 cells were lysed with 200 μL of 1 M sodium hydroxide for 10 min, and 150 μL of these samples were transferred to a black well plate for fluorescein quantification. […]
For the inhibition data analysis, the average of measured concentrations in the control cells was subtracted from the average of measured concentrations in transporter‐expressing cells for each inhibitor concentration and then normalized to the vehicle sample that represents 100% transport activity. […]

| transport by MRP2 (MRP2) | transport by OATP1B3 (OATP1B3) | Km at 2 min (OATP1B3) [µM] | Km (OATP1B3) [µM] | Vmax (pmol/106 cells/min) OATP1B3 (OATP1B3) [pmol/106 cells/min] | IC50 (OAT4; IC50 (95% CI), μM OAT4, 34 nM methotrexate, 10 min, no preincubation) | Calculated R-value OAT4 (OAT4) | Compound |
| --- | --- | --- | --- | --- | --- | --- | --- |
| did not transport | transported | 2.81 | 3 | 2.69 | 7.2 µM and 7.23 µM | 0.19 ^d | Cc1onc(-c2c(Cl)cccc2Cl)c1C(=O)N[C@@H]1C(=O)N2[C@@H]1SC(C)(C)[C@@H]2C(=O)O [Dicloxacillin] |
| did not transport | transported | 18.3 | 10 to 18 | 6.02 | – | 0.08 ^d | Cc1onc(-c2c(F)cccc2Cl)c1C(=O)N[C@@H]1C(=O)N2[C@@H]1SC(C)(C)[C@@H]2C(=O)O [Flucloxacillin] |
